Laboratory results taken from article PMC4820889 (Journal of Biomedical Research, 2015).

Target: ABCC1 (MRP1) (Homo sapiens, UniProt P33527)
Sequence (P33527 whole entry): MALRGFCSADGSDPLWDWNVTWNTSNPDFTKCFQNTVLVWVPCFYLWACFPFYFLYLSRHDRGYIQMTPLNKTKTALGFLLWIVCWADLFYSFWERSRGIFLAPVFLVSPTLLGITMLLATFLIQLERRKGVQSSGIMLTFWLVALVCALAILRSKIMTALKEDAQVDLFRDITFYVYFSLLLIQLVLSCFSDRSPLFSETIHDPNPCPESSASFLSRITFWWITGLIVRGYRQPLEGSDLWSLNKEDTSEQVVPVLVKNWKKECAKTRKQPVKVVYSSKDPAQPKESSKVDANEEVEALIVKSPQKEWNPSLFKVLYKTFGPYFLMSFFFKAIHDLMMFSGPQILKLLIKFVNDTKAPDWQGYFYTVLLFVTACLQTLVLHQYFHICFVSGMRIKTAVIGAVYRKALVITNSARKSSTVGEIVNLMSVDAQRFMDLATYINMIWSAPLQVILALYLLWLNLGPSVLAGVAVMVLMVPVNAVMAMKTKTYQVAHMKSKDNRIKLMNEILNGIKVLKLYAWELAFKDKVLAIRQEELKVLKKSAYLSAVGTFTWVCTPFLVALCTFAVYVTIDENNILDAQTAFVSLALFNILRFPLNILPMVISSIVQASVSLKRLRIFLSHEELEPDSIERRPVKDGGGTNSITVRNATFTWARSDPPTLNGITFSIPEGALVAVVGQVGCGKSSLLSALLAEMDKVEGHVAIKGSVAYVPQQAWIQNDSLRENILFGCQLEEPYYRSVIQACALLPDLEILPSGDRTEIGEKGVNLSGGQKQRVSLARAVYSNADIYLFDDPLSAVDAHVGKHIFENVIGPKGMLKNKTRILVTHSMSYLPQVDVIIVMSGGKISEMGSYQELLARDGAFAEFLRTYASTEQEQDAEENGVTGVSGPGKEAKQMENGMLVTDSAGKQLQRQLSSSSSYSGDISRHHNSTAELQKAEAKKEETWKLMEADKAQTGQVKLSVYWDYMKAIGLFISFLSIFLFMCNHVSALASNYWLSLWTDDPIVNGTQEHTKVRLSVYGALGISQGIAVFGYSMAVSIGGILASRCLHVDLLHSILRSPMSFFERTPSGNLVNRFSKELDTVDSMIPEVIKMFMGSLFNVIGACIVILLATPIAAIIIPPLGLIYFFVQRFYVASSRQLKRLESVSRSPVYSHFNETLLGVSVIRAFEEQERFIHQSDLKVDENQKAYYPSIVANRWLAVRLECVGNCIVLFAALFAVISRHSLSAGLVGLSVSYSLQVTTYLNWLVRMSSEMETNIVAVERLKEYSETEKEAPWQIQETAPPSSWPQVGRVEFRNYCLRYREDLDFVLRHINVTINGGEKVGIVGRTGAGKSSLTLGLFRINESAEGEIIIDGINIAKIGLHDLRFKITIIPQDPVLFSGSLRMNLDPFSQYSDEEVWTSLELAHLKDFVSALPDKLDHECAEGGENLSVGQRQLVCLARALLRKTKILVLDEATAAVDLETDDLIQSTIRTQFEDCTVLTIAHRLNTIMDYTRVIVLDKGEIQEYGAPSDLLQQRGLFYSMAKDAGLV

Compound CSc1ccc(/C=C2/C(C)=C(CC(=O)O)c3cc(F)ccc32)cc1 [SS, sulindac sulfide] has an IC50 of 5.6 µM.
